Test systems include NCI/ADR-RES; NCI-H23; COLO 205; SF-539; SK-MEL-2; SK-MEL-5; HL-60; K562; UACC-62; T47D; NCI-H226; A549; TK-10; OVCAR-3; MDA-MB-231; KM12; HCC 2998; HCT-116; PC-3; RXF 393.
What all share (test): DTP human tumour cell line panel, 48 h

What is called GI50 is the concentration giving 50% growth inhibition.

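Each compound was tested at five concentrations against cells in 96-well plates for 48 hours. GI50 marks 50% less growth.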 Activity calls are given as the source filed them. No stated cut-off is given here; in the data, active = GI50 up to about 1.1 µM and inactive = higher.

With `O=C1C=CC(=O)N1c1ccc2c(c1)Cc1cc(NC(=O)C(F)(F)F)ccc1-2`, the GI50 in the assay with NCI/ADR-RES was 27.7 µM (inactive); in the assay with NCI-H23, 16.4 µM (inactive); with COLO 205 it was 13.1 µM (inactive); in the assay on SF-539, 18 µM (inactive); in the assay with SK-MEL-2 it was 18.4 µM (inactive); in the assay with SK-MEL-5, 47 µM (inactive). For the same compound, the GI50 in the assay with HL-60 is 12.2 µM (inactive); with K562 it was 9.25 µM (inactive); in the assay on UACC-62 it was 16.8 µM (inactive); in the assay on T47D, 17.9 µM (inactive); with NCI-H226 it was 4.84 µM (inactive); in the assay on A549, 17.9 µM (inactive). Also, the GI50 was 3 µM (inactive) in the assay on TK-10; 15.7 µM (inactive) in the assay with OVCAR-3; 16.4 µM (inactive) with MDA-MB-231; 18.5 µM (inactive) in the assay on KM12; > 45.2 µM (inactive) in the assay on HCC 2998; 7.36 µM (inactive) with HCT-116. Moreover, the GI50 in the assay with PC-3 is 17.1 µM (inactive); with RXF 393 it was 5.66 µM (inactive).

As to `N#Cc1c(N2CCCC2)nsc1NCc1ccccc1`, the GI50 with NCI/ADR-RES, with NCI-H23, in the assay on COLO 205, in the assay on SF-539, with SK-MEL-2 and in the assay with SK-MEL-5 was > 100 µM (inactive) in each case. For the same compound, the GI50 was > 100 µM (inactive) in the assay on HL-60; > 100 µM (inactive) in the assay on K562; 75.2 µM (inactive) in the assay on UACC-62; 74.6 µM (inactive) with T47D; > 100 µM (inactive) in the assay on NCI-H226; > 100 µM (inactive) in the assay on A549. Further, the GI50 with TK-10, with OVCAR-3, in the assay on MDA-MB-231, in the assay with KM12, in the assay on HCC 2998 and in the assay with HCT-116 was > 100 µM (inactive) each time. Besides, the GI50 with PC-3 is > 100 µM (inactive); with RXF 393, 15 µM (inactive).

As to `CC(=O)c1cccc(Nc2c3ccccc3nc3occc23)c1`, the GI50 in the assay with NCI/ADR-RES is 2.51 µM (inactive); in the assay on NCI-H23, 3.01 µM (inactive); in the assay with COLO 205 it was 11.7 µM (inactive); in the assay on SF-539, 2.16 µM (inactive); in the assay on SK-MEL-2 it was 2.74 µM (inactive); in the assay on SK-MEL-5, 8.75 µM (inactive). Also, the GI50 in the assay on HL-60 was 3.48 µM (inactive); in the assay on K562, 3.26 µM (inactive); in the assay on UACC-62, 9.04 µM (inactive); in the assay on T47D, 5.14 µM (inactive); in the assay with NCI-H226, 10.8 µM (inactive); with A549, 16.5 µM (inactive). The GI50 with TK-10 is 16.2 µM (inactive); in the assay on OVCAR-3, 1.82 µM (inactive); in the assay on MDA-MB-231 it was 9.93 µM (inactive); in the assay on KM12, 4.73 µM (inactive); in the assay on HCC 2998 it was 5.21 µM (inactive); in the assay on HCT-116 it was 3.5 µM (inactive). Further, the GI50 with PC-3 is 13 µM (inactive); with RXF 393, 0.09 µM (active).

Consider `CC(Oc1ccccc1Cl)C(=O)NN1C(=O)CC(=O)N(c2ccc(Cl)cc2)C1=S` (stereo not given), for which the GI50 in the assay on NCI/ADR-RES is 36.1 µM (inactive); with NCI-H23 it was 38 µM (inactive); with COLO 205 it was 39.7 µM (inactive); in the assay on SF-539, 75.5 µM (inactive); in the assay on SK-MEL-2 it was 27.9 µM (inactive); with SK-MEL-5, 36 µM (inactive). Besides, the GI50 in the assay on HL-60 was 3.21 µM (inactive); in the assay with K562 it was 13.1 µM (inactive); in the assay on UACC-62, 30.3 µM (inactive); in the assay on T47D, 34.6 µM (inactive); with NCI-H226 it was 52.8 µM (inactive); with A549, 36.5 µM (inactive). Further, the GI50 in the assay with TK-10 is 54.7 µM (inactive); in the assay with OVCAR-3, 38.4 µM (inactive); with MDA-MB-231 it was 40.4 µM (inactive); in the assay on KM12, 47.6 µM (inactive); with HCC 2998 it was 50.9 µM (inactive); in the assay with HCT-116 it was 32.1 µM (inactive). Further, the results for the GI50 in the assay with PC-3 and in the assay on RXF 393 were 38.1 µM (inactive) and 30 µM (inactive), respectively.

Turning to `O=C(O)CCSC(=S)Nc1ccc([N+](=O)[O-])cc1`, the GI50 with NCI/ADR-RES was 40.8 µM (inactive); with NCI-H23, > 66.7 µM (inactive); with COLO 205, 97.9 µM (inactive); in the assay on SF-539, 39.5 µM (inactive); in the assay on SK-MEL-2, > 61.4 µM (inactive); in the assay with SK-MEL-5, 20.3 µM (inactive). The GI50 with HL-60 is 20.8 µM (inactive); with K562, 27.2 µM (inactive); with UACC-62, 21.6 µM (inactive); in the assay with T47D, 31.3 µM (inactive); with NCI-H226, > 75.2 µM (inactive); in the assay with A549, > 83.2 µM (inactive). The GI50 in the assay on TK-10 is 51.8 µM (inactive); in the assay on OVCAR-3, 45 µM (inactive); in the assay with MDA-MB-231 it was > 100 µM (inactive); in the assay with KM12 it was > 80.2 µM (inactive); in the assay with HCC 2998 it was > 89.9 µM (inactive); in the assay with HCT-116, 60.7 µM (inactive). Also, the GI50 in the assay on PC-3 is 48.2 µM (inactive); with RXF 393, > 60.8 µM (inactive).

On to `CC(=O)OCC1OC(OC(C)=O)C(Nc2ncc(-c3ccc(C)cc3)s2)C(OC(C)=O)C1OC(C)=O` (stereo not given), for which the GI50 in the assay on NCI/ADR-RES was 30.6 µM (inactive); in the assay on NCI-H23, 12 µM (inactive); in the assay with COLO 205, 17.7 µM (inactive); in the assay on SF-539 it was 20.7 µM (inactive); with SK-MEL-2, 22.6 µM (inactive); in the assay on SK-MEL-5 it was 15.8 µM (inactive). In addition, the GI50 is > 10 µM (inactive) with HL-60; 15.7 µM (inactive) with K562; 14.4 µM (inactive) in the assay on UACC-62; 15.2 µM (inactive) in the assay with T47D; 26.4 µM (inactive) in the assay with NCI-H226; 18.6 µM (inactive) in the assay with A549. Also, the GI50 in the assay on TK-10 was 18.8 µM (inactive); in the assay on OVCAR-3, 19.3 µM (inactive); in the assay on MDA-MB-231 it was 19.9 µM (inactive); in the assay with KM12, > 10 µM (inactive); with HCC 2998, 29.7 µM (inactive); in the assay on HCT-116 it was 16.4 µM (inactive). Also, the results for the GI50 in the assay with PC-3 and in the assay with RXF 393 were 15.9 µM (inactive) and 16.1 µM (inactive), respectively.

Consider `CCOP(=O)(O)C(Nc1ccc(/N=N/c2ccccc2)cc1)c1cccc(C(Nc2ccc(/N=N/c3ccccc3)cc2)P(=O)(O)OCC)c1` (stereo not given), for which the GI50 is 76.9 µM (inactive) in the assay on NCI/ADR-RES; 71.1 µM (inactive) with NCI-H23; 21.6 µM (inactive) in the assay on COLO 205; 33.9 µM (inactive) in the assay with SF-539; 45.2 µM (inactive) in the assay with SK-MEL-2; 45.1 µM (inactive) with SK-MEL-5. For the same compound, the GI50 with HL-60 is 22.1 µM (inactive); with K562, 19 µM (inactive); in the assay with UACC-62, 29.4 µM (inactive); in the assay on T47D, 18.4 µM (inactive); in the assay with NCI-H226 it was > 100 µM (inactive); in the assay on A549 it was 34.2 µM (inactive). Further, the GI50 with TK-10 was > 100 µM (inactive); in the assay with OVCAR-3, 55.3 µM (inactive); in the assay with MDA-MB-231, 58.6 µM (inactive); with KM12 it was 32.6 µM (inactive); with HCC 2998, 25.2 µM (inactive); in the assay with HCT-116, 56.6 µM (inactive). The GI50 with PC-3 was 23.9 µM (inactive); in the assay with RXF 393, 75.5 µM (inactive).

As for `Nc1ccc(S2(c3ccc(N)cc3)C=C(c3ccccc3)C(c3ccccc3)=C2)cc1`, the GI50 was > 35.1 µM (inactive) in the assay with NCI/ADR-RES; > 47.2 µM (inactive) with NCI-H23; > 45 µM (inactive) in the assay with COLO 205; > 25.5 µM (inactive) with SF-539; > 26.6 µM (inactive) with SK-MEL-2; > 100 µM (inactive) in the assay with SK-MEL-5. Besides, the GI50 is > 100 µM (inactive) in the assay on HL-60; > 46.9 µM (inactive) with K562; > 35.6 µM (inactive) in the assay on UACC-62; > 100 µM (inactive) in the assay with T47D; > 21.8 µM (inactive) in the assay on NCI-H226; > 29.4 µM (inactive) in the assay on A549. In addition, the GI50 in the assay on TK-10 is > 27.9 µM (inactive); in the assay with OVCAR-3 it was > 100 µM (inactive); in the assay on MDA-MB-231, > 24.2 µM (inactive); in the assay on KM12, > 54.7 µM (inactive); in the assay with HCC 2998, > 54 µM (inactive); in the assay on HCT-116, > 36 µM (inactive). Also, the GI50 with PC-3 was > 25.2 µM (inactive); in the assay on RXF 393, > 26.9 µM (inactive).

`CC(C)(C)c1cc[n+](C[n+]2ccc(C(C)(C)C)cc2)cc1`: the GI50 with NCI/ADR-RES, in the assay on NCI-H23, with COLO 205, in the assay on SF-539, with SK-MEL-2 and in the assay with SK-MEL-5 was > 100 µM (inactive) each time. Further, the GI50 with HL-60, with K562, with UACC-62, with T47D, in the assay with NCI-H226 and with A549 was > 100 µM (inactive) in each case. The GI50 with TK-10, with OVCAR-3, with MDA-MB-231, in the assay with KM12, in the assay with HCC 2998 and in the assay on HCT-116 was > 100 µM (inactive) each time. For the same compound, the GI50 with PC-3 and in the assay on RXF 393 was > 100 µM (inactive) each time.

As to `CCC(O)c1ccc(/N=C/c2ccccc2O)cc1` (stereo not given), the GI50 is > 100 µM (inactive) with NCI/ADR-RES; > 100 µM (inactive) with NCI-H23; 49.9 µM (inactive) in the assay on COLO 205; > 100 µM (inactive) in the assay on SF-539; > 100 µM (inactive) in the assay on SK-MEL-2; > 100 µM (inactive) in the assay with SK-MEL-5. For the same compound, the GI50 is > 100 µM (inactive) in the assay with HL-60; > 100 µM (inactive) in the assay on K562; > 100 µM (inactive) with UACC-62; 8.97 µM (inactive) in the assay on T47D; > 100 µM (inactive) with NCI-H226; > 100 µM (inactive) in the assay with A549. In addition, the GI50 with TK-10 is > 100 µM (inactive); in the assay with OVCAR-3, > 100 µM (inactive); in the assay with MDA-MB-231 it was > 100 µM (inactive); in the assay on KM12, > 100 µM (inactive); in the assay with HCC 2998, > 100 µM (inactive); in the assay with HCT-116, 74.1 µM (inactive). The GI50 in the assay with PC-3 and with RXF 393 was > 100 µM (inactive) each time.

The values above are taken from ChEMBL document CHEMBL1201862, “PubChem BioAssay data set” (2004).
